{"source": "patent US20200306211A1", "about": "“METHOD FOR ADAPTING DOSES OF COMBINATION THERAPIES” (Pharnext, priority 2015, published 2020)", "tested_on": "young and elderly healthy volunteers", "test": "Cognitive Event-Related Potentials (ERP) latency composite score, correlated with plasma drug concentrations", "type": "in vivo, human", "conditions": "plasma concentration at 1.5 h in subjects with best ERP latencies composite score (ERP at Day 10, 6 h post-dose)", "protocol": "The study below was a double blind placebo control study performed in accordance with the European Medicines Agency ICH-E6 (R1) guideline recommendations and the French law n° 2004-806, Aug. 9, 2004 relative to public health law. The study was a preliminary study whose one of the objectives was to assess baclofen and acamprosate combinatorial treatment to improve cognition in young and elderly healthy volunteers. The study was conducted on a cohort of 24 human subjects.\nBriefly, the duration of treatment was of 10 days.\nElectrophysiological measurement of Cognitive Event-Related Potentials (ERPs) were recorded to assess the cognitive performances of the subjects. ERPs are the electrophysiological response to a stimulus and could serve as a surrogate biological marker of cognitive performances. Here, the cognitive task required paying attention and to count odd stimuli according to a specific protocol. Potential is recorded during the test. An ERP latency composite score is determined from the different derivations. […]\nA correlation was searched between each of the different endpoints (i.e. the cognitive tests, or the ERP latency composite score) and drug concentrations determined at each sampling time.\nPearson's correlation coefficient was determined for each of the endpoints and different plasmatic concentrations measured as a function of time.", "data": [{"smiles": "CC(=O)NCCCS(=O)(=O)O", "note": "[acamprosate]", "values": [{"measurement": "Most efficient plasmatic concentration in trial", "value": ">2.5", "unit": "ng/mL"}]}, {"smiles": "NCC(CC(=O)O)c1ccc(Cl)cc1", "note": "(centres unmarked) [baclofen]", "values": [{"measurement": "Most efficient plasmatic concentration in trial", "value": "≥500", "unit": "ng/mL"}]}]}
